From patent US20250134918A1, “COMPOSITIONS AND METHODS USING A NICOTINAMIDE ADENINE DINUCLEOTIDE (NAD+) PRECURSOR AND AT LEAST ONE KETONE OR KETONE PRECURSOR” (SOCIETE DES PRODUITS NESTLE S.A., priority 2018, published 2025)

Test system: human iPSC-derived astrocytes (homozygous ApoE 3 or homozygous ApoE4 genotype)
Assay: Oxygen consumption (Seahorse XF96), FCCP-uncoupled maximal respiration
Format: cell-based
Settings: hiPSC-derived astrocytes, ApoE3 (FIG. 6) and ApoE4 (FIG. 7); NR 0.5 mM for 24 hours; BHB 0.5 mM or 2 mM or BHP 2 mM for 1 h; FCCP 1 μM
Protocol: Differentiated human iPSC-derived astrocytes with either a homozygous ApoE 3 genotype or homozygous ApoE4 genotype (and otherwise isogenic) were obtained from Cellular Dynamics International (CDI, Madison, WI, USA). The cells were thawed according to the manufacturer's instructions. Astrocytes were cultured in DMEM supplemented with 10% fetal calf serum and N2 complement. Oxygen consumption in human iPSC-derived astrocytes was measured in a Seahorse XF96 instrument (Seahorse Bioscience, North Billerica, MA, USA). Astrocytes were seeded directly into Seahorse 96-well tissue culture plates (XF96 FluxPaks no. 102416-100; Seahorse Bioscience) at a density of 40,000 cells per well. Cells were incubated for 24 hours with 0.5 mM of Nicotinamide riboside chloride (NR) or fresh medium before experiment. Four days after seeding, the cells were washed twice in KRBH containing 1 mM glucose and incubated for 1 h with the ketone bodies BHB (racemic (D,L) BHB) or BHP (D BHP) at the concentration indicated. The cells were maintained at 37° C. during the experiment. Mitochondrial respiration rates were determined every 6 minutes. […] The oxygen consumption rate in hiPSC-derived astrocytes was measured as an indication of mitochondrial function, using a Seahorse instrument. Through addition of the uncoupling agent FCCP, uncoupled (=maximal) respiration was determined.

NC(=O)c1ccc[n+]([C@@H]2O[C@H](CO)[C@@H](O)[C@H]2O)c1 [NR, Nicotinamide riboside chloride]
maximal respiration (uncoupled oxygen consumption rate): Neither ketone bodies alone nor NR treatment significantly increases maximal respiration
